The source made the active and inactive calls.
How the values were obtained:
Vero = test: viability of Vero cells under compound – cytotoxicity control for flavivirus capping enzyme inhibitors (AID 588742); type: functional; conditions: Chlorocebus sabaeus
[1] = target: Eukaryotic translation initiation factor 4E (Mus musculus, UniProt P63073); test: blockers of eIF4G binding by eIF4E – biochemical, TR-FRET, dose response (AID 855); type: functional;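 note: potency for disrupting eIF4E binding to eIF4GI seen as loss of FRET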
Genome polyprotein = Genome polyprotein (dengue virus type 2, UniProt P29990); test: flavivirus cap methylation enzyme inhibition – biochemical, confirmation dose response, primary screen (AID 588689); type: functional
[2] = target: Glucose-6-phosphate 1-dehydrogenase (Homo sapiens, UniProt P11413); test: inhibition of Homo sapiens G6PD, dose series – biochemical, fluorescence, selectivity assay for P. falciparum G6PD inhibitor project, dose response (AID 504792); type: functional
[3] = Luminescence Cell-Based Dose Response HTS to Identify Activators of Luciferase Translation or Activity in H4 […] Cells. [Related pubchem assays: 1829 (Project Summary), 1814 (Primary HTS)]; type: functional
H4 = test: Luminescence Cell-Based Dose Response HTS to Identify Activators of 5'UTR Stem-Loop Driven Prion Protein mRNA Translation in H4 Neuroglioblastoma Cells. [Related pubchem assays: 1829 (Project Summary), 1814 (Primary HTS)]; type: functional; conditions: Homo sapiens
[4] = Luminescence Cell-Based Dose Confirmation HTS to Identify Activators of 5'UTR Stem-Loop Driven Alpha-Synuclein mRNA Translation in H4 Neuroglioblastoma Cells. [Related pubchem assays: 1829 (Project Summary), 1814 (Primary HTS)]; type: functional
[5] = target: Glyceraldehyde-3-phosphate dehydrogenase (Homo sapiens, UniProt P04406)
cells [6] = type: functional
[7] = target: T1, DNA repair protein RAD52 homolog (Homo sapiens, UniProt P43351); type: functional, biochemical
T1 sequence (P43351 whole entry): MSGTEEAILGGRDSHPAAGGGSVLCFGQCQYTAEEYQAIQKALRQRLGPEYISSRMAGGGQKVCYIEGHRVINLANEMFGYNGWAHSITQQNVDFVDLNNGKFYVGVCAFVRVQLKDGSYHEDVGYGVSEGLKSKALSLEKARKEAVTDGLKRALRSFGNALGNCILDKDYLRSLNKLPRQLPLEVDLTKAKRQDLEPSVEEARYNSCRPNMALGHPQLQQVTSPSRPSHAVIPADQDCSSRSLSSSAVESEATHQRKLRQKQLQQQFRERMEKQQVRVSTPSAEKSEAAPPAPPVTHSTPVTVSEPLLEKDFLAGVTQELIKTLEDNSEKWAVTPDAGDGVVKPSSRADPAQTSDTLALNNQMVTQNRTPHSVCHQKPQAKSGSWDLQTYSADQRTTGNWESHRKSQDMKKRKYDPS

[8] = THP-1 cell cytotoxicity, dose response, cytotoxicity control for non-replicating M. tuberculosis project (AID 489025); type: functional
[9] = HepG2 cell cytotoxicity, dose response, cytotoxicity control for non-replicating M. tuberculosis project (AID 489018); type: functional; conditions: Mycobacterium tuberculosis
[10] = Vero E6 cell cytotoxicity, dose response, cytotoxicity control for non-replicating M. tuberculosis project, secondary assay (AID 492998); type: functional, VeroE6; conditions: Vero C1008
Cytochrome P450 1A2 = target: T2, Cytochrome P450 1A2 (Homo sapiens, UniProt P05177);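 note: PubChem cytochrome P450 panel assay, CYP1A2 panel member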
T2 sequence (P05177 whole entry): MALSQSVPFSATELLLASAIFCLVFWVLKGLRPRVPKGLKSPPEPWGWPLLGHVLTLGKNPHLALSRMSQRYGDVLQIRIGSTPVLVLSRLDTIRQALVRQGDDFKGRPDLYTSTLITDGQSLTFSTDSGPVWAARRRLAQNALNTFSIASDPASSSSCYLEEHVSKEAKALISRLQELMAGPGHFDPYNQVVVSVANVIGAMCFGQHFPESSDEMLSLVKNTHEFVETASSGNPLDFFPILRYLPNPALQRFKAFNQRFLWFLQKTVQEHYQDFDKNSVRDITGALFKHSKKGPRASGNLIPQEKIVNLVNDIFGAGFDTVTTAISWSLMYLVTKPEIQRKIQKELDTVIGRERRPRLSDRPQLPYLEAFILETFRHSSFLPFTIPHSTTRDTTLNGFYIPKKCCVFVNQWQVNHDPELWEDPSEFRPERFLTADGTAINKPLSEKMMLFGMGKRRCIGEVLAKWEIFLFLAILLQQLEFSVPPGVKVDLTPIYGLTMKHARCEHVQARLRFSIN

Cytochrome P450 3A4 = Cytochrome P450 3A4 (Homo sapiens, UniProt P08684);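 note: CYP3A4 tested as one member of a cytochrome P450 panel screen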
cells [11] = type: functional, cell-based
[12] = test system: Streptococcus sp. 'group A'; test: Streptococcus pyogenes SK(-)GAS viability under kanamycin – luminescence, BacTiterGlo, confirmation, counter-screen for streptokinase expression inhibitor project, dose response (AID 1900); type: functional, organism-based
INS1 = test: INS-1E survival protection against cytokine death – cell-based, luminescence, retest, dose response (AID 449756); type: functional; conditions: Rattus norvegicus;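 note: cell death triggered by IL-1 beta plus TNF-alpha plus IFN-gamma mixture; protective hits raise ATP signal compared with cytokine alone wells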
[13] = target: T3, Microphthalmia-associated transcription factor (Homo sapiens, UniProt O75030); test: reducers of TRPM1 reporter luminescence, concentration series – cell-based, SK-MEL-5, cherry-picked, set 3, MITF inhibitor project, dose response (AID 493073); type: functional;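 note: SK-MEL-5 melanoma cells with luciferase driven by the MITF target TRPM1 promoter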
T3 sequence (O75030 whole entry): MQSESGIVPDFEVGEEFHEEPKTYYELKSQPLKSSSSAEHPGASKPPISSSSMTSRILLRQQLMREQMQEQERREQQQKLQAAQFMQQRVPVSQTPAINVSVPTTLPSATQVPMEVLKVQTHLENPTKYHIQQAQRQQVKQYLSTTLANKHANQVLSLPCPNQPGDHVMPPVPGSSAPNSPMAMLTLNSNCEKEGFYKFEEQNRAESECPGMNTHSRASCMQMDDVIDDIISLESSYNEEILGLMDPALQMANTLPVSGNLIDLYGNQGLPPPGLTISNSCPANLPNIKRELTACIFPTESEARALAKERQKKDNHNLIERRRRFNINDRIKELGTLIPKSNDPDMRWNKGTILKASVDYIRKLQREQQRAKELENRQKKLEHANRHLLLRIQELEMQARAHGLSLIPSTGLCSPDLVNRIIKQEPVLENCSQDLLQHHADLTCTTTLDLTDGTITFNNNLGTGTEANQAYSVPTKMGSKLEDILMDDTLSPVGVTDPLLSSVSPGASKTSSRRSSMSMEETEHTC

[14] = NIH-3T3 fibroblast cytotoxicity, dose response, cytotoxicity control, cell-based, fluorescence, Alamar Blue, secondary assay (AID 2327); type: functional;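 note: NIH-3T3 mouse fibroblasts cultured with fluconazole at 8 µg/mL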
[15] = fluconazole-exposed Candida albicans growth modulators – fluorescence, retest, confirmation (AID 2467); type: functional, cell-based
Streptococcus = test: GAS UMAA2166 growth inhibition – luminescence, BacTiterGlo, counter-screen for streptokinase expression inhibitor project, dose response (AID 1915); type: functional, organism-based;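 note: potency for reduction of bacterial viability or growth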
cells [16] = type: functional, cell-based; remark: listed apart in the source
Aminopeptidase N = target: T4, Aminopeptidase N (Plasmodium falciparum FcB1/Columbia, UniProt O96935); test: malaria alanyl aminopeptidase activity blockers – biochemical, fluorogenic H-Leu-NHMec substrate, 1536-well (AID 1445); design: species or system Plasmodium falciparum 3D7, 3D7
T4 sequence (O96935 whole entry): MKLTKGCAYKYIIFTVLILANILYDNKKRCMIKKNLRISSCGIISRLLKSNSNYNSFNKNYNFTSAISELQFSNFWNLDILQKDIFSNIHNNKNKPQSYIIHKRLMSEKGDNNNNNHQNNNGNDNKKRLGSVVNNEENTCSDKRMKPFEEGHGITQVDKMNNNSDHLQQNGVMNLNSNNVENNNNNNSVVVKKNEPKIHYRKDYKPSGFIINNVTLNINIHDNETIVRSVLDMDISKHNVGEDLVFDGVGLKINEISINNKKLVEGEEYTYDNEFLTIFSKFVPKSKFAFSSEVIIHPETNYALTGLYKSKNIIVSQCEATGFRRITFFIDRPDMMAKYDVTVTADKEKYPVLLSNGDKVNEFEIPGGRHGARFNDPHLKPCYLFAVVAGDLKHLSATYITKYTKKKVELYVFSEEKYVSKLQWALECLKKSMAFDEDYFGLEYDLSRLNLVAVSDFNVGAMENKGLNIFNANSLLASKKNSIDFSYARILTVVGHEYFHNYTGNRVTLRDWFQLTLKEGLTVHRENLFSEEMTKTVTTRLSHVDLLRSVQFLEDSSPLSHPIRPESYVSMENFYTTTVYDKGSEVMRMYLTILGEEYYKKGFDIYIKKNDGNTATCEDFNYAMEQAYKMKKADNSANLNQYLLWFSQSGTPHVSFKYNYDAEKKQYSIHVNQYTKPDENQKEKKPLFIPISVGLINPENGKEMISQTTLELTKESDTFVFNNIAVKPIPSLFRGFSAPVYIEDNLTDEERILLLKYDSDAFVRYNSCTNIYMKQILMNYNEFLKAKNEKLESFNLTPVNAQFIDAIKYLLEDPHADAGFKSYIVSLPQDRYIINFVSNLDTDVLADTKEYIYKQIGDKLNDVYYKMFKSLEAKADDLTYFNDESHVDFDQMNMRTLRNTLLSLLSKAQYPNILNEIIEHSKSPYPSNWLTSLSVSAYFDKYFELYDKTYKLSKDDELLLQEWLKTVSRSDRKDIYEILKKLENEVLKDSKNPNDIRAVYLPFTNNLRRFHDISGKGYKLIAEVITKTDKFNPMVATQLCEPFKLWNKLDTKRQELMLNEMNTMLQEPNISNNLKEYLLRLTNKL

[17] = target: T5, Alkaline phosphatase, tissue-nonspecific isozyme (Homo sapiens, UniProt P05186); test: potency against alkaline phosphatase TNAP – biochemical, luminescent, dose response, SAR follow-up (AID 1056)
T5 sequence (P05186 whole entry): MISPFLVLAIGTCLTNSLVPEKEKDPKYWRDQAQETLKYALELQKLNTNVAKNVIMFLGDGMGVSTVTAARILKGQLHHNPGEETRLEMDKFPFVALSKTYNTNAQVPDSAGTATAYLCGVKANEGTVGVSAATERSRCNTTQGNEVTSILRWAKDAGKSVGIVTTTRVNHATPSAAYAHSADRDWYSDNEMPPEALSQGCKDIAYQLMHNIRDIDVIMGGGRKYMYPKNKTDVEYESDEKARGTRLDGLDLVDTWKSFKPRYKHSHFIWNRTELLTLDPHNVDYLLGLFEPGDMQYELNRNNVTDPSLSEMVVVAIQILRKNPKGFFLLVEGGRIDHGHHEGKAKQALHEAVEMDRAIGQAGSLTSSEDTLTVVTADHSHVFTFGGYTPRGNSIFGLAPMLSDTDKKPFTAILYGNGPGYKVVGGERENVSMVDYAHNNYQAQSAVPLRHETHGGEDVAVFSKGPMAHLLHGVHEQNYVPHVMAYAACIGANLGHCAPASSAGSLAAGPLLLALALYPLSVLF

[18] = target: T6, Rac GTPase-activating protein 1 (Homo sapiens, UniProt Q9H0H5); test: blockers of MgcRacGAP-driven Rac1 GTP hydrolysis – biochemical, ADP Hunter fluorescence, primary and confirmatory, confirmation (AID 624330); type: functional
T6 sequence (Q9H0H5 whole entry): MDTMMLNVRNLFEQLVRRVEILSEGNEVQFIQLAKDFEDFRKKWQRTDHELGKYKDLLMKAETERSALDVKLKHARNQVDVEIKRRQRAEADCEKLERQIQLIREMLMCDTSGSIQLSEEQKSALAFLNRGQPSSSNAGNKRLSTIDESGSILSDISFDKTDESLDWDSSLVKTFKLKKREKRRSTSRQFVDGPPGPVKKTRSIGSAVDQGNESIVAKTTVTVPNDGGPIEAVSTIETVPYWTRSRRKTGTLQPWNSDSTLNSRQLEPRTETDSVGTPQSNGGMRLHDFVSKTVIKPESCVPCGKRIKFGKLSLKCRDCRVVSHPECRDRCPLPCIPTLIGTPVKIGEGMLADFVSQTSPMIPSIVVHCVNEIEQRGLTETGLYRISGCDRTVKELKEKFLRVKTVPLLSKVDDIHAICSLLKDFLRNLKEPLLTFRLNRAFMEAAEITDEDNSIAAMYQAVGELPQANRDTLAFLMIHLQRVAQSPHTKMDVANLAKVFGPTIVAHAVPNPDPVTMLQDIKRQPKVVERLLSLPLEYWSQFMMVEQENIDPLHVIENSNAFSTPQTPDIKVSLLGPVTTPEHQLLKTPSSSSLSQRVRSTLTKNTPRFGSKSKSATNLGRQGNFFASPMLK

Sequence of Glyceraldehyde-3-phosphate dehydrogenase (P04406 whole entry): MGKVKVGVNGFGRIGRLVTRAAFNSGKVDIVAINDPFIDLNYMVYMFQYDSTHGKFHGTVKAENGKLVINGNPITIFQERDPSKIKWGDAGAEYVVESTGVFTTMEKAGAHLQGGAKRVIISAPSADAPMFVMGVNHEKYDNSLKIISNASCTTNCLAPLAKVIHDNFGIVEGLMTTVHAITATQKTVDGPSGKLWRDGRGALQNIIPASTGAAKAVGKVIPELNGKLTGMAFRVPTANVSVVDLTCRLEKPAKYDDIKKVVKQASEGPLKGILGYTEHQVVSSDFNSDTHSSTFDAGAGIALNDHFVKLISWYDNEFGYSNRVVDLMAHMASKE
Sequence of Glucose-6-phosphate 1-dehydrogenase (P11413 whole entry): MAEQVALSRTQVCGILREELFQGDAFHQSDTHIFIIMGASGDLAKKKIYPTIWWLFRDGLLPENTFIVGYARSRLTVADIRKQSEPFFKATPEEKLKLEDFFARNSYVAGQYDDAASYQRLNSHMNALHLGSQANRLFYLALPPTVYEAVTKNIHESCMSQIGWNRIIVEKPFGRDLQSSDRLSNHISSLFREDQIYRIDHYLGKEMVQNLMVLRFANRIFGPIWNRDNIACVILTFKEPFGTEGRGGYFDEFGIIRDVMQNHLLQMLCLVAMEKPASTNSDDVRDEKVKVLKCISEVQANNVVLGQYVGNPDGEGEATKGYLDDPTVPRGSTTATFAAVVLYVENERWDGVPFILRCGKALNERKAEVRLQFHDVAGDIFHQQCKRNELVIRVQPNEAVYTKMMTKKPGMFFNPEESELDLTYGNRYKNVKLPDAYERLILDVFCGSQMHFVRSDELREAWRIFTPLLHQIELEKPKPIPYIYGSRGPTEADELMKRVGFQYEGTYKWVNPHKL
Sequence of Eukaryotic translation initiation factor 4E (P63073 whole entry): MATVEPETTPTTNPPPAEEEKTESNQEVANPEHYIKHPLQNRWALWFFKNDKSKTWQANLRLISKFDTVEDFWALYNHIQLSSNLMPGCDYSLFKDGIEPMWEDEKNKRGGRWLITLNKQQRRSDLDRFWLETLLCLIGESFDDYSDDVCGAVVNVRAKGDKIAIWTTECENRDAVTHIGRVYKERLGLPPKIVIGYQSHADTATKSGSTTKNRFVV
Sequence of Genome polyprotein (P29990 2492-3391 limits assumed): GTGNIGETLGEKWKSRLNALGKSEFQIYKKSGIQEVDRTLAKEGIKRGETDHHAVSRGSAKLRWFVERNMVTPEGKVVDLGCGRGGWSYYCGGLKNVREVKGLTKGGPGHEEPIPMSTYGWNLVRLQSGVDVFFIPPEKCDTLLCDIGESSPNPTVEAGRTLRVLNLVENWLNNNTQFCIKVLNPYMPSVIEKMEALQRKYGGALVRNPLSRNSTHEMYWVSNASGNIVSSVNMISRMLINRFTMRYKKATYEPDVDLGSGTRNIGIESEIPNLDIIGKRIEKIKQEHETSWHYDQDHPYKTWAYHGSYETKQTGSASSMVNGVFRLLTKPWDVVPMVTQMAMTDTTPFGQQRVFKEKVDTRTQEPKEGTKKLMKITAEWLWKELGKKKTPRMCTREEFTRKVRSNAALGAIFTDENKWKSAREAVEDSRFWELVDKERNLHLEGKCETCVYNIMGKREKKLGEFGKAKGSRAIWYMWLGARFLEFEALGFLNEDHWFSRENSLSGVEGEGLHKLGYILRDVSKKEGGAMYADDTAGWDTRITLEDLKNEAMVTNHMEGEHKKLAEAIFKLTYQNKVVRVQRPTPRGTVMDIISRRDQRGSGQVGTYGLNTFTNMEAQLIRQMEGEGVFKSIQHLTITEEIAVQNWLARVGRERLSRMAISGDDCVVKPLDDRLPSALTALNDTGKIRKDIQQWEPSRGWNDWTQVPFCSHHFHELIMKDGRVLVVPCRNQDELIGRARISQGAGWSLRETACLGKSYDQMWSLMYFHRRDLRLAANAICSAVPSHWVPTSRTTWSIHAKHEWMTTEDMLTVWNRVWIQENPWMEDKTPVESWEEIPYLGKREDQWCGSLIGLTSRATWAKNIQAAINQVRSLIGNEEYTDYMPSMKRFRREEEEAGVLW
Sequence of Cytochrome P450 3A4 (P08684 whole entry): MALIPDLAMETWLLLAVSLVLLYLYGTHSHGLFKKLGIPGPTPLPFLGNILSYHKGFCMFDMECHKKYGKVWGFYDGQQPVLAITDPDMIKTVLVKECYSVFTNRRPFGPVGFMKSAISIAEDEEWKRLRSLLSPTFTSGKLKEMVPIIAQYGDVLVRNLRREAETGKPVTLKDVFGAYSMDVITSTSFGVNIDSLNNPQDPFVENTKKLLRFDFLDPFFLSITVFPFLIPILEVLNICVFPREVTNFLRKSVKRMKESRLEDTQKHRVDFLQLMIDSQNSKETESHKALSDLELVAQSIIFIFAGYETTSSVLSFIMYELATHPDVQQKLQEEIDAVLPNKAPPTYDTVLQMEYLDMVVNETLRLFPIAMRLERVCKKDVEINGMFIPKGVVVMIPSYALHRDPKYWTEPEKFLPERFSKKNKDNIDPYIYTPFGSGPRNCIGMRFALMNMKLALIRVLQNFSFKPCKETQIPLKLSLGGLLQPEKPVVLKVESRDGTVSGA

In the case of `COc1cc(CNc2ccc(N3CCCC3)cc2)ccc1OCc1ccccc1F`, the CC50 (Vero) was > 40 µM (active), the IC50 [1] was > 64 µM (inactive) and the IC50 (Genome polyprotein) was 54.2 µM (active). For the same molecule, the IC50 [2] was > 80 µM (inactive).
In the case of `O=C(CSc1nnc2ccc3ccccc3n12)N1CCOCC1`, the EC50 [3] was 14.6 µM (active), the EC50 (H4) was 14.4 µM (inconclusive) and the EC50 [4] was > 120 µM (not active).
For `Cc1cc(C(=O)Nc2ccc(O)c(C(=O)O)c2)c(C)o1`, the IC50 [5] was > 100 µM (not active).
In the case of `CCc1nccn1CCC(=O)N1CCCC(N2CCN(c3cccc(Cl)c3)CC2)C1` (stereo unspecified), the EC50 [3] was 25.5 µM (active), the EC50 (H4) was 16.3 µM (active) and the EC50 [4] was > 120 µM (not active).
For `O=C1C(Cl)=C(N2CCN(Cc3ccccc3)CC2)C(=O)N1c1ccc(C(F)(F)F)cc1`, the IC50 [5] was > 50 µM (inconclusive).
For `CN(C)CC/C=C1\c2ccccc2Sc2cc(F)c(Cl)cc21`, the IC50 (cells [6]) was 20.8 µM (active), the AC50 [7] was 15.1 µM (active) and the CC50 [8] was 17 µM (active). For the same molecule, the CC50 [9] was > 20 µM (active) and the CC50 [10] was > 20 µM (active).
For `Cc1ccc(Oc2ncc(CN3CCOCC3)s2)cc1`, the AC50 (Cytochrome P450 1A2) was 22.4 µM (inconclusive), the EC50 [3] was 13.1 µM (active) and the AC50 (Cytochrome P450 3A4) was 20 µM (inconclusive). For the same molecule, the EC50 (H4) was 40.4 µM (active) and the EC50 [4] was 13.1 µM (active).
In the case of `Cc1nc(C)c(C(=O)N/N=C/c2cc(Br)ccc2O)s1`, the EC50 (cells [11]) was 99.3 µM (active), the EC50 [12] was 2.35 µM (active) and the AC50 (INS1) was 2.63 µM (active). The AC50 [13] was 3.66 µM (active), the EC50 [14] was > 150 µM (inactive) and the EC50 [15] was 1.34 µM (active). For the same molecule, the EC50 (Streptococcus) was 8.73 µM (active), the EC50 (cells [16]) was > 350 µM (not active) and the IC50 (Aminopeptidase N) was 12.9 µM (active).
For `C/C(=N\NC(=O)c1nc2ccccn2c1C)c1ccco1`, the EC50 [3] was > 120 µM (not active), the EC50 (H4) was 15.7 µM (active) and the EC50 [4] was 14.4 µM (active).
In the case of `Cc1cc(C)nc(SCC(=O)c2ccc(O)c(O)c2)n1`, the IC50 [17] was 5.76 µM (active) and the IC50 [18] was 30.6 µM (active).
